Measurements reported in ChEMBL document CHEMBL4808173, “Discovery of Novel Benzimidazole and Indazole Analogues as Tubulin Polymerization Inhibitors with Potent Anticancer Activities” (J Med Chem, 2021).
The source made the active and inactive calls. The calls are words filed in the database; no cut-off is given here.

Assays:
[1] = Resistance index, ratio of IC50 for antiproliferative activity against human A2780T cells assessed as reduction in cell viability measured after 48 hrs by MTT assay to IC50 for antiproliferative activity against human A2780S cells assessed as reduction in cell viability measured after 48 hrs by MTT assay; format: functional
[2] = system: A2780/Taxol; assay: Inhibition of colony formation in human A2780T cells assessed as decrease in colonies at 100 nM measured after 24 hrs by photographic imaging analysis; format: functional, cell-based
[3] = system: A2780/Taxol; assay: Antiproliferative activity against human A2780T cells assessed as reduction in cell viability measured after 48 hrs by MTT assay; format: functional, cell-based
[4] = system: B16-F10; assay: Antitumor activity against mouse B16-F10 cells inoculated in BALB/c mouse assessed as tumor growth inhibition at 10 mg/kg, ip qd for 14 days by caliper method relative to control; format: functional; conditions: 336 h, time 14 day, read-out: TGI
[5] = system: A2780S; assay: Antiproliferative activity against human A2780S cells assessed as reduction in cell viability measured after 48 hrs by MTT assay; format: functional, cell-based
[6] = system: MCF7; assay: Cell cycle analysis in human MCF7 cells assessed as accumulation at S phase at 5 nM measured after 48 hrs by RnaseA/propidium iodide staining based flow cytometry (reference value: 27.46 %); format: functional
[7] = system: HeLa; assay: Antiproliferative activity against human HeLa cells assessed as reduction in cell viability measured after 48 hrs by MTT assay; format: functional, cell-based
[8] = Acute toxicity in BALB/c mouse inoculated with mouse B16-F10 cells assessed as effect on body weight at 15 mg/kg, ip qd for 14 days; format: organism-based; conditions: in vivo, 336 h, time 14 day
[9] = system: MCF7; assay: Induction of apoptosis in human MCF7 cells assessed as late apoptotic cells at 20 nM measured after 48 hrs by annexinV-FITC/propidium iodide staining based flow cytometry (reference value: 5.99 %); format: functional
[10] = system: MCF7; assay: Induction of apoptosis in human MCF7 cells assessed as early apoptotic cells at 5 nM measured after 48 hrs by annexinV-FITC/propidium iodide staining based flow cytometry (reference value: 1.89 %); format: functional
[11] = system: MCF7; assay: Cell cycle analysis in human MCF7 cells assessed as accumulation at G2 phase at 5 nM measured after 48 hrs by RnaseA/propidium iodide staining based flow cytometry (reference value: 17.03 %); format: functional
[12] = Acute toxicity in BALB/c mouse inoculated with mouse B16-F10 cells assessed as effect on liver at 15 to 30 mg/kg, ip qd for 14 days by hematoxylin and eosin staining based analysis; format: organism-based; conditions: in vivo, 336 h, dose 15-30 mg/kg, time 14 day
[13] = system: MCF7; assay: Inhibition of colony formation in human MCF7 cells assessed as decrease in colonies measured after 24 hrs by photographic imaging analysis; format: functional, cell-based; conditions: dose 0.05-5 µM
[14] = system: MCF7; assay: Cell cycle analysis in human MCF7 cells assessed as accumulation at G2 phase at 20 nM measured after 48 hrs by RnaseA/propidium iodide staining based flow cytometry (reference value: 17.03 %); format: functional
[15] = system: MCF7; assay: Induction of apoptosis in human MCF7 cells assessed as early apoptotic cells at 20 nM measured after 48 hrs by annexinV-FITC/propidium iodide staining based flow cytometry (reference value: 1.89 %); format: functional
[16] = system: MCF7; assay: Induction of apoptosis in human MCF7 cells assessed as live cells at 10 nM measured after 48 hrs by annexinV-FITC/propidium iodide staining based flow cytometry (reference value: 88.5 %); format: functional
[17] = Acute toxicity in BALB/c mouse inoculated with mouse B16-F10 cells assessed as effect on kidney at 15 to 30 mg/kg, ip qd for 14 days by hematoxylin and eosin staining based analysis; format: organism-based; conditions: in vivo, 336 h, dose 15-30 mg/kg, time 14 day
[18] = system: B16-F10; assay: Antimigratory activity in mouse B16-F10 cells assessed as inhibition of cell migration measured after 24 hrs; format: functional, cell-based; conditions: dose 5-20 nM
[19] = system: B16-F10; assay: Antitumor activity against mouse B16-F10 cells inoculated in BALB/c mouse assessed as tumor growth inhibition at 15 mg/kg, ip qd for 14 days by caliper method relative to control; format: functional; conditions: 336 h, time 14 day, read-out: TGI
[20] = system: MCF7; assay: Cell cycle analysis in human MCF7 cells assessed as accumulation at S phase at 10 nM measured after 48 hrs by RnaseA/propidium iodide staining based flow cytometry (reference value: 27.46 %); format: functional
[21] = system: MCF7; assay: Cell cycle analysis in human MCF7 cells assessed as accumulation at G1 phase at 20 nM measured after 48 hrs by RnaseA/propidium iodide staining based flow cytometry (reference value: 53.68 %); format: functional
[22] = system: MCF7; assay: Cell cycle analysis in human MCF7 cells assessed as accumulation at S phase at 20 nM measured after 48 hrs by RnaseA/propidium iodide staining based flow cytometry (reference value: 27.46 %); format: functional
[23] = system: MCF7; assay: Induction of apoptosis in human MCF7 cells assessed as necrotic cells at 10 nM measured after 48 hrs by annexinV-FITC/propidium iodide staining based flow cytometry (reference value: 2.62 %); format: functional
[24] = system: B16-F10; assay: Antimigratory activity in mouse B16-F10 cells assessed as inhibition of cell migration by measuring wound closure at 20 nM measured after 24 hrs (reference value: 51.92 +/- 2.02 %); format: functional; set-up: scale not given: the % may be the effect or the level left
[25] = system: A549; assay: Antiproliferative activity against human A549 cells assessed as reduction in cell viability measured after 48 hrs by MTT assay; format: functional, cell-based
[26] = system: B16-F10; assay: Antitumor activity against mouse B16-F10 cells inoculated in BALB/c mouse assessed as tumor growth inhibition at 30 mg/kg, ip qd for 14 days by caliper method relative to control; format: functional; conditions: 336 h, time 14 day, read-out: TGI
[27] = system: MCF7; assay: Induction of apoptosis in human MCF7 cells assessed as early apoptotic cells at 10 nM measured after 48 hrs by annexinV-FITC/propidium iodide staining based flow cytometry (reference value: 1.89 %); format: functional
[28] = system: MCF7; assay: Induction of apoptosis in human MCF7 cells assessed as necrotic cells at 5 nM measured after 48 hrs by annexinV-FITC/propidium iodide staining based flow cytometry (reference value: 2.62 %); format: functional
[29] = system: MCF7; assay: Induction of apoptosis in human MCF7 cells assessed as live cells at 20 nM measured after 48 hrs by annexinV-FITC/propidium iodide staining based flow cytometry (reference value: 88.5 %); format: functional
[30] = system: MCF7; assay: Induction of apoptosis in human MCF7 cells assessed as late apoptotic cells at 5 nM measured after 48 hrs by annexinV-FITC/propidium iodide staining based flow cytometry (reference value: 5.99 %); format: functional
[31] = system: B16-F10; assay: Antimigratory activity in mouse B16-F10 cells assessed as inhibition of cell migration by measuring wound closure at 10 nM measured after 24 hrs (reference value: 51.92 +/- 2.02 %); format: functional; set-up: scale not given: the % may be the effect or the level left
[32] = Binding affinity to immobilized pig brain tubulin assessed as equilibrium dissociation constant by SPR assay; format: tissue-based, Sus scrofa
[33] = system: MCF7; assay: Cell cycle analysis in human MCF7 cells assessed as accumulation at G1 phase at 10 nM measured after 48 hrs by RnaseA/propidium iodide staining based flow cytometry (reference value: 53.68 %); format: functional
[34] = system: MCF7; assay: Induction of apoptosis in human MCF7 cells assessed as necrotic cells at 20 nM measured after 48 hrs by annexinV-FITC/propidium iodide staining based flow cytometry (reference value: 2.62 %); format: functional
[35] = system: A2780/Taxol; assay: Inhibition of colony formation in human A2780T cells assessed as decrease in colonies measured after 24 hrs by photographic imaging analysis; format: functional, cell-based; conditions: dose 10-100 nM
[36] = system: B16-F10; assay: Antimigratory activity in mouse B16-F10 cells assessed as inhibition of cell migration by measuring wound closure at 5 nM measured after 24 hrs (reference value: 51.92 +/- 2.02 %); format: functional; set-up: scale not given: the % may be the effect or the level left
[37] = system: MCF7; assay: Cell cycle analysis in human MCF7 cells assessed as accumulation at G2 phase at 10 nM measured after 48 hrs by RnaseA/propidium iodide staining based flow cytometry (reference value: 17.03 %); format: functional
[38] = system: MCF7; assay: Induction of apoptosis in human MCF7 cells assessed as late apoptotic cells at 10 nM measured after 48 hrs by annexinV-FITC/propidium iodide staining based flow cytometry (reference value: 5.99 %); format: functional
[39] = system: B16-F10; assay: Antiproliferative activity against mouse B16-F10 cells assessed as reduction in cell viability measured after 48 hrs by MTT assay; format: functional, cell-based
[40] = system: MCF7; assay: Cell cycle analysis in human MCF7 cells assessed as accumulation at G1 phase at 5 nM measured after 48 hrs by RnaseA/propidium iodide staining based flow cytometry (reference value: 53.68 %); format: functional
[41] = (§1) Inhibition of pig brain tubulin polymerization by spectrophotometric method; format: tissue-based, Sus scrofa
[42] = species: Sus scrofa; assay: as §1; format: tissue-based
[43] = system: MCF7; assay: Antiproliferative activity against human MCF7 cells assessed as reduction in cell viability measured after 48 hrs by MTT assay; format: functional, cell-based
[44] = system: MCF7; assay: Induction of apoptosis in human MCF7 cells assessed as live cells at 5 nM measured after 48 hrs by annexinV-FITC/propidium iodide staining based flow cytometry (reference value: 88.5 %); format: functional
[45] = system: B16-F10; assay: Disruption of microtubule network in mouse […] cells measured after 6 hrs by DAPI staining based immunofluorescence microscopic assay; format: cell-based; conditions: dose 10-40 nM

CC(=O)O[C@H]1C(=O)[C@@]2(C)[C@H]([C@H](OC(=O)c3ccccc3)[C@]3(O)C[C@H](OC(=O)[C@H](O)[C@@H](NC(=O)c4ccccc4)c4ccccc4)C(C)=C1C3(C)C)[C@]1(OC(C)=O)CO[C@@H]1C[C@@H]2O [PACLITAXEL]
Ratio IC50 [1]: 421.8
inhibition [2]: inactive
IC50 [3]: 3.16 µM
inhibition in vivo at 10 mg/kg [4]: 88.7%
IC50 [5]: 0.0075 µM

COc1cc(-c2cccc3[nH]c(-c4cccc5c4ccn5C)nc23)cc(OC)c1OC
Activity [6]: 23.09%
Activity [7]: Dose-Dependent Effect
IC50 [7]: 0.068 µM
Activity [8]: Non-Toxic
Activity [9]: 34.3%
Activity [10]: 2.98%
Activity [11]: 13.41%
Activity [12]: Non-Toxic
inhibition [13]: Dose-Dependent Effect
Activity [14]: 62.16%
Activity [15]: 4.69%
Activity [16]: 84.4%
Activity [17]: Non-Toxic
inhibition [18]: Dose-Dependent Effect
inhibition in vivo at 15 mg/kg [19]: 78.7%
Activity [20]: 22.93%
Activity [21]: 17.16%
Activity [22]: 19.63%
Activity [23]: 2.12%
Ratio IC50 [1]: 1.6
Activity [24]: 6.6%
Activity [25]: Dose-Dependent Effect
IC50 ([25]; A549, 48 h): 0.085 µM
inhibition in vivo at 30 mg/kg [26]: 84.3%
IC50 [3]: 0.0097 µM
Activity [27]: 5.12%
Activity [28]: 4.26%
Activity [29]: 58.9%
Activity [30]: 9.04%
Activity [31]: 15.68%
Kd [32]: 12.7 µM
Activity [33]: 13.1%
Activity [34]: 2.14%
inhibition [35]: Dose-Dependent Effect
Activity [36]: 29.42%
Activity [37]: 62.8%
Activity [38]: 28.4%
Activity [39]: Dose-Dependent Effect
IC50 ([39]; B16-F10, 48 h): 0.029 µM
IC50 [5]: 0.0062 µM
Activity [40]: 62.06%
IC50 [41]: 2.52 µM
inhibition [42]: Dose-Dependent Effect
Activity [43]: Dose-Dependent Effect
IC50 ([43]; MCF7, 48 h): 0.018 µM
Activity [44]: 83.7%
Activity [45]: Dose-Dependent Effect
